Where a name gives a salt, the structure may show the parent alone.
Tested on: recombinant guanylate cyclase reporter cell line
Assay: Effect on a recombinant guanylate cyclase reporter cell line
Format: cell-based
Conditions: in some cases mean values from individual determinations, read-out: MEC (minimum effective concentration)
Description: B-2. Effect on a Recombinant Guanylate Cyclase Reporter Cell Line
The cellular activity of the compounds according to the invention is determined using a recombinant guanylate cyclase reporter cell line, as described in F. Wunder et al., Anal. Biochem. 339, 104-112 (2005).
Representative MEC values (MEC=minimum effective concentration) for the compounds of the invention are shown in the table below (in some cases as mean values from individual determinations): […]

Work on `COc1ccc(CC(C)(N)CNC(=O)c2ccnc3c(OCc4c(F)cccc4F)cccc23)cc1` (racemic) [Example 35, rac-N-[2-amino-3-(4-methoxyphenyl)-2-methylpropyl]-8-[(2,6-difluorobenzyl)oxy]quinoline-4-carboxamide trifluoroacetate] yielded a minimal effective concentration of 3 µM.

For `CC(N)(CNC(=O)c1ccnc2c(OCc3c(F)cccc3F)cccc12)C1CC1` (racemic) [Example 42, rac-N-(2-Amino-2-cyclopropylpropyl)-8-[(2,6-difluorobenzyl)oxy]quinoline-4-carboxamide], the minimal effective concentration was 10 µM.

For `Cc1cc(OCc2c(F)cccc2F)c2nccc(C(=O)NC(C)(CO)c3nnn(C(F)F)n3)c2c1` (racemic) [Example 49, rac-8-[(2,6-Difluorobenzyl)oxy]-N-{2-[2-(difluoromethyl)-2H-tetrazol-5-yl]-1-hydroxypropan-2-yl}-6-methylquinoline-4-carboxamide], the minimal effective concentration was 2 µM.

Compound `COc1ccc(CC(C)(N)CNC(=O)c2ccnc3c(OCc4c(F)cccc4F)cccc23)cc1` (single isomer, unassigned; enantiomer a) [Example 36, ent-N-[2-Amino-3-(4-methoxyphenyl)-2-methylpropyl]-8-[(2,6-difluorobenzyl)oxy]quinoline-4-carboxamide (Enantiomer A)] has a minimal effective concentration of 3 µM.

`CC(N)(CCC(F)(F)F)CNC(=O)c1ccnc2c(OCc3c(F)cccc3F)cccc12` (single isomer, unassigned; enantiomer b) [Example 6, ent-N-(2-Amino-5,5,5-trifluoro-2-methylpentyl)-8-[(2,6-difluorobenzyl)oxy[quinoline-4-carboxamide (Enantiomer B)] was tested, and the minimal effective concentration was 0.3 µM.

`CC(N)(CNC(=O)c1ccnc2c(OCc3c(F)cccc3F)cccc12)CC(F)F` (single isomer, unassigned; enantiomer b) [Example 7, ent-N-(2-Amino-4,4-difluoro-2-methylbutyl)-8-[(2,6-difluorobenzyl)oxy]quinoline-4-carboxamide (Enantiomer B)] showed a minimal effective concentration of 2 µM.

`COc1ccc(CC(C)(N)CNC(=O)c2ccnc3c(OCc4c(F)cccc4F)cccc23)cc1` (single isomer, unassigned; enantiomer b) [Example 37, ent-N-[2-Amino-3-(4-methoxyphenyl)-2-methylpropyl]-8-[(2,6-difluorobenzyl)oxy]quinoline-4-carboxamide (Enantiomer B)] gave a minimal effective concentration of 10 µM.

For `CC(N)(CCC(F)(F)F)CNC(=O)c1cnc2c(OCc3c(F)cccc3F)cccc2c1` (single isomer, unassigned; enantiomer b) [Example 40, ent-N-(2-Amino-5,5,5-trifluoro-2-methylpentyl)-8-[(2,6-difluorobenzyl)oxy]quinoline-3-carboxamide (Enantiomer B)], the minimal effective concentration was 10 µM.

`Cc1cc(C(=O)NCC(C)(N)CCC(F)(F)F)c2cccc(OCc3c(F)cccc3F)c2n1` (single isomer, unassigned; enantiomer b) [Example 43, ent-N-(2-Amino-5,5,5-trifluoro-2-methylpentyl)-8-[(2,6-difluorobenzyl)oxy]-2-methylquinoline-4-carboxamide (Enantiomer B)] showed a minimal effective concentration of 1 µM.

`Cc1cc(OCc2c(F)cccc2F)c2nccc(C(=O)NCC(C)(N)CCC(F)(F)F)c2c1` (single isomer, unassigned; enantiomer b) [Example 45, ent-N-(2-Amino-5,5,5-trifluoro-2-methylpentyl)-8-[(2,6-difluorobenzyl)oxy]-6-methylquinoline-4-carboxamide (Enantiomer B)] gave a minimal effective concentration of 0.65 µM.

For `CCC(C)(N)CNC(=O)c1cc(C)nc2c(OCc3c(F)cccc3F)cccc12` (single isomer, unassigned; enantiomer b) [Example 47, ent-N-(2-Amino-2-methylbutyl)-8-[(2,6-difluorobenzyl)oxy]-2-methylquinoline-4-carboxamide (Enantiomer B)], the minimal effective concentration was 3 µM.

Compound `CC(C)(O)C(CCC(F)(F)C(F)(F)F)NC(=O)c1ccnc2c(OCc3c(F)cccc3F)cccc12` (single isomer, unassigned; ent-8) [Example 32, ent-8-[(2,6-Difluorobenzyl)oxy]-N-(6,6,7,7,7-pentafluoro-2-hydroxy-2-methylheptan-3-yl)quinoline-4-carboxamide (Enantiomer A)] has a minimal effective concentration of 2 µM.

Work on `O=C(NC1(c2ccc(F)c(F)c2)CC1)c1ccnc2c(OCc3c(F)cccc3F)cccc12` [Example 1, 8-[(2,6-Difluorobenzyl)oxy]-N-[1-(3,4-difluorophenyl)cyclopropyl]quinoline-4-carboxamide] yielded a minimal effective concentration of 3 µM.

For `O=C(Nc1ccnc2ccc(F)cc12)c1ccnc2c(OCc3c(F)cccc3F)cccc12` [Example 2, 8-[(2,6-Difluorobenzyl)oxy]-N-(6-fluoroquinolin-4-yl)quinoline-4-carboxamide], the minimal effective concentration was 10 µM.

`CCCC[C@H](C)NC(=O)c1ccnc2c(OCc3c(F)cccc3F)cccc12` [Example 3, 8-[(2,6-Difluorobenzyl)oxy]-N-[(2S)-hexan-2-yl]quinoline-4-carboxamide] showed a minimal effective concentration of 1 µM.

In the case of `CCCC[C@H](CO)NC(=O)c1ccnc2c(OCc3c(F)cccc3F)cccc12` [Example 4, 8-[(2,6-Difluorobenzyl)oxy]-N-[(2R)-1-hydroxyhexan-2-yl]quinoline-4-carboxamide], the minimal effective concentration is reported as 3 µM.

For `CC[C@](C)(N)CNC(=O)c1ccnc2c(OCc3c(F)cccc3F)cccc12` [Example 5, N-[(2S)-2-Amino-2-methylbutyl]-8-[(2,6-difluorobenzyl)oxy]quinoline-4-carboxamide], the minimal effective concentration was 3 µM.

`O=C(NCCC1(O)CCCC1)c1ccnc2c(OCc3c(F)cccc3F)cccc12` [Example 8, 8-[(2,6-Difluorobenzyl)oxy]-N-[2-(1-hydroxycyclopentyl)ethyl]quinoline-4-carboxamide] was tested, and the minimal effective concentration was 3 µM.

Work on `O=C(NC1c2ccccc2CC1O)c1ccnc2c(OCc3c(F)cccc3F)cccc12` (stereo not shown) [Example 9] yielded a minimal effective concentration of 3 µM.

In the case of `O=C(N[C@@H](CO)C(=O)Nc1ccc2ccccc2c1)c1ccnc2c(OCc3c(F)cccc3F)cccc12` [Example 10], the minimal effective concentration is reported as 10 µM.

For `CCC(N)(CC)CNC(=O)c1ccnc2c(OCc3c(F)cccc3F)cccc12` [Example 11], the minimal effective concentration was 3 µM.

`CC1(C)CC(NC(=O)c2ccnc3c(OCc4c(F)cccc4F)cccc23)CC(C)(C)N1` [Example 12] was tested, and the minimal effective concentration was 10 µM.

Compound `O=C(NC1CC1c1ccccc1)c1ccnc2c(OCc3c(F)cccc3F)cccc12` (stereo not shown) [Example 13] has a minimal effective concentration of 10 µM.

`CN(C)CCNC(=O)c1ccnc2c(OCc3c(F)cccc3F)cccc12` [Example 14] gave a minimal effective concentration of 10 µM.

With `O=C(NCc1ccccc1-c1cccnc1)c1ccnc2c(OCc3c(F)cccc3F)cccc12` [Example 15] the minimal effective concentration was 10 µM.

With `O=C(NCCN1CCOCC1)c1ccnc2c(OCc3c(F)cccc3F)cccc12` [Example 16] the minimal effective concentration was 10 µM.

`Cc1nn(Cc2ccc(F)cc2)c(C)c1NC(=O)c1ccnc2c(OCc3c(F)cccc3F)cccc12` [Example 17] was tested, and the minimal effective concentration was 10 µM.

`CC(NC(=O)c1ccnc2c(OCc3c(F)cccc3F)cccc12)c1nc(C(F)(F)F)no1` (stereo not shown) [Example 18] showed a minimal effective concentration of 3 µM.

In the case of `Cc1[nH]nc(C(F)(F)F)c1NC(=O)c1ccnc2c(OCc3c(F)cccc3F)cccc12` [Example 19], the minimal effective concentration is reported as 3 µM.

Work on `O=C(NCc1ccc(Cl)nc1)c1ccnc2c(OCc3c(F)cccc3F)cccc12` [Example 20] yielded a minimal effective concentration of 3 µM.

`CC(COCC(F)(F)F)NC(=O)c1ccnc2c(OCc3c(F)cccc3F)cccc12` (stereo not shown) [Example 21] showed a minimal effective concentration of 3 µM.

Compound `O=C(NCC1(O)CC1)c1ccnc2c(OCc3c(F)cccc3F)cccc12` [Example 22] has a minimal effective concentration of 3 µM.

Work on `O=C(NCCN(CC(F)F)C1CC1)c1ccnc2c(OCc3c(F)cccc3F)cccc12` [Example 23] yielded a minimal effective concentration of 3 µM.

In the case of `O=C(N[C@H]1CCOC1=O)c1ccnc2c(OCc3c(F)cccc3F)cccc12` [Example 24], the minimal effective concentration is reported as 10 µM.

With `CCC(CO)(CO)NC(=O)c1ccnc2c(OCc3c(F)cccc3F)cccc12` [Example 25] the minimal effective concentration was 10 µM.

`CN1CCC(NC(=O)c2ccnc3c(OCc4c(F)cccc4F)cccc23)c2ccccc21` (stereo not shown) [Example 27] showed a minimal effective concentration of 1 µM.

Work on `O=C(NCc1ccccc1-n1ccnc1)c1ccnc2c(OCc3c(F)cccc3F)cccc12` [Example 28] yielded a minimal effective concentration of 3 µM.

With `O=C(NC1CCCc2ccccc21)c1ccnc2c(OCc3c(F)cccc3F)cccc12` (stereo not shown) [Example 29] the minimal effective concentration was 0.3 µM.

For `O=C(Nc1cnn(CCO)c1)c1ccnc2c(OCc3c(F)cccc3F)cccc12` [Example 30], the minimal effective concentration was 10 µM.

`N#CC(NC(=O)c1ccnc2c(OCc3c(F)cccc3F)cccc12)c1ccc(Cl)cc1` (stereo not shown) [Example 31] was tested, and the minimal effective concentration was 3 µM.

Work on `O=C(NC(CO)c1ccc(F)cc1)c1ccnc2c(OCc3c(F)cccc3F)cccc12` (stereo not shown) [Example 33] yielded a minimal effective concentration of 2 µM.

For `O=C(NC1CCOc2ncccc21)c1ccnc2c(OCc3c(F)cccc3F)cccc12` (stereo not shown) [Example 34], the minimal effective concentration was 1 µM.

`CCCC[C@H](CO)NC(=O)c1cnc2c(OCc3c(F)cccc3F)cccc2c1` [Example 38, 8-[(2,6-Difluorobenzyl)oxy]-N-[(2R)-1-hydroxyhexan-2-yl]quinoline-3-carboxamide] showed a minimal effective concentration of 3 µM.

Work on `O=C(NC1(c2ccc(F)cc2)CC1)c1cnc2c(OCc3c(F)cccc3F)cccc2c1` [Example 39, 8-[(2,6-Difluorobenzyl)oxy]-N-[1-(4-fluorophenyl)cyclopropyl]quinoline-3-carboxamide] yielded a minimal effective concentration of 1 µM.

In the case of `CC[C@](C)(N)CNC(=O)c1cnc2c(OCc3c(F)cccc3F)cccc2c1` [Example 41, N-[(2S)-2-Amino-2-methylbutyl]-8-[(2,6-difluorobenzyl)oxy]quinoline-3-carboxamide], the minimal effective concentration is reported as 10 µM.

`N#C[C@H]1CC[C@H](CNC(=O)c2ccnc3c(OCc4c(F)cccc4F)cccc23)CC1` [Example 44] was tested, and the minimal effective concentration was 10 µM.
